Two molecules from ChEMBL document CHEMBL6177981, “Bardoxolone Derivatives as Novel Pseudo-Natural Necroptosis Inhibitors by Destabilizing HSP90 Client Proteins” (J Med Chem, 2025) can be followed below.

Each structure is given as a SMILES string. Calls of active or inactive are those of the source. The calls are words filed in the database; no cut-off is given here.

Assay [1] concerns HT-29. The experiment in a line: Effect on RIPK1 protein level in human HT-29 cells at 10 microg/ml incubated for 9 hrs by Western blot analysis. The note with it: dose 10.0 µg/ml. In kind it is functional, cell-based. On the technique in general: A western blot detects proteins with antibodies after separation by electrophoresis.
Assay [2] has as its system HT-29. Put plainly: Effect on RIPK3 protein level in human HT-29 cells at 10 microg/ml incubated for 9 hrs by Western blot analysis. The note with it: dose 10.0 µg/ml. In kind it is functional, cell-based.
For assay [3], the system named is HT-29. The experiment in a line: Effect on MLKL protein level in human HT-29 cells at 10 microg/ml incubated for 9 hrs by Western blot analysis. In kind it is functional, cell-based. The settings on record: dose 10.0 µg/ml.
Assay [4] has as its system L929. Put plainly: Anti-necroptotic activity in TZ-induced mouse L929 cells assessed as increase in cell viability preincubated with Z-VAD-FMK followed by mTNFalpha stimulation for 4 hrs and measured after compound addition by CellTiter-Lumi luminescent cell viability assay. In kind it is functional, cell-based.
Assay [5] relates to HT-29. The experiment in a line: Anti-necroptotic activity in TSZ-induced human HT-29 cells assessed as increase in cell viability preincubated with Z-VAD-FMK and SM164 for 30 mins followed by TNFalpha stimulation for 12 hrs and measured after compound addition by CellTiter-Lumi luminescent cell viability assay. In kind it is functional, cell-based.
Assay [6] has as its system L929. The experiment in a line: Anti-necroptotic activity in TZ-induced mouse L929 cells assessed as protection against cell death at 10 uM measured within 5 hrs by Live-cell super-resolution panoramic microscopic analysis. In kind it is functional, cell-based.
The target of assay [7] is Heat shock protein HSP90 (Homo sapiens) (UniProt P07900+P08238). The experiment in a line: Inhibition of HSP90 in TSZ-induced human HT-29 cells assessed as reduction in EGFR protein level at 10 uM preincubated with compound followed by Z-VAD-FMK, SM164 and TNFalpha stimulation and measured after 6 hrs by Western blot analysis. In kind it is cell-based.
The target in assay [8] is T1, Receptor-interacting serine/threonine-protein kinase 1 (Homo sapiens) (UniProt Q13546).
T1 sequence (whole entry): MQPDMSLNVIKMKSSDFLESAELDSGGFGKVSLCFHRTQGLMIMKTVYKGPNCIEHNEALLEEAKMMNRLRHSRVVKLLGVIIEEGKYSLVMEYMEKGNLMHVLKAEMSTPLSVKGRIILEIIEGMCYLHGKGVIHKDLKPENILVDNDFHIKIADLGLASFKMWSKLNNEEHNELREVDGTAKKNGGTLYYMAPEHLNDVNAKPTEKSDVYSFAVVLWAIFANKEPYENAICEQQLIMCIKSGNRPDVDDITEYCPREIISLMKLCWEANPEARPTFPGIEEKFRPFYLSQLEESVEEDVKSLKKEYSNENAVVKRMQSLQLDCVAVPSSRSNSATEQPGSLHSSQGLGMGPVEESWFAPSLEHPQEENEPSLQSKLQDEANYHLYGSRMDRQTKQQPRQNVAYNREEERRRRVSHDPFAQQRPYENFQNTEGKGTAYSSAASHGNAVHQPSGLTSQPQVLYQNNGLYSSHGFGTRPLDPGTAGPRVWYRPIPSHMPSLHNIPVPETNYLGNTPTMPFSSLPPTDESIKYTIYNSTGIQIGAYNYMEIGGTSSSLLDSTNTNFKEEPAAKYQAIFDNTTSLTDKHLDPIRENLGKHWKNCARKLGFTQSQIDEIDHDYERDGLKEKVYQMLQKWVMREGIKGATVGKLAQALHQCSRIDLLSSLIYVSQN
The experiment in a line: Inhibition of RIPK1 phosphorylation at S166 residue in TSZ-induced human HT-29 cells at 10 uM preincubated with compound followed by Z-VAD-FMK, SM164 and TNFalpha stimulation and measured after 6 hrs by Western blot analysis. In kind it is cell-based.

For assay [9], the target named is Receptor-interacting serine/threonine-protein kinase 3 (Homo sapiens) (UniProt Q9Y572). Put plainly: Inhibition of RIPK3 phosphorylation at S227 residue in TSZ-induced human HT-29 cells at 10 uM preincubated with compound followed by Z-VAD-FMK, SM164 and TNFalpha stimulation and measured after 6 hrs by Western blot analysis. In kind it is cell-based.
Chain of Receptor-interacting serine/threonine-protein kinase 3 (Homo sapiens) (Q9Y572 whole entry, looked up, the tested form may be a part): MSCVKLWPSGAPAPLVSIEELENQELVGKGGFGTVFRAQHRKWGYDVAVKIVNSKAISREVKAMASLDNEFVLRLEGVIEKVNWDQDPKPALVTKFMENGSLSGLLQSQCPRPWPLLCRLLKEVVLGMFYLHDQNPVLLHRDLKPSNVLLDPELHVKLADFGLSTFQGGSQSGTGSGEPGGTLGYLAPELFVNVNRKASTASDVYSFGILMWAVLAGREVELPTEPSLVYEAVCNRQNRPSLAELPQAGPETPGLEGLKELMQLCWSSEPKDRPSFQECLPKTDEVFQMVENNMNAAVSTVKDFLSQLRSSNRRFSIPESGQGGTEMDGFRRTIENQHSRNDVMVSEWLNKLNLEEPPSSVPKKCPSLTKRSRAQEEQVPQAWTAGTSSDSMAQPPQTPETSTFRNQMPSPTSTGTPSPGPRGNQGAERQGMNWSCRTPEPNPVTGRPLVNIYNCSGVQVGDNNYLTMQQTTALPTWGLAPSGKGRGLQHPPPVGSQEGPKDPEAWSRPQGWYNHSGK
Assay [10] has as its target T2, Mixed lineage kinase domain-like protein (Homo sapiens) (UniProt Q8NB16).
T2 sequence (whole entry): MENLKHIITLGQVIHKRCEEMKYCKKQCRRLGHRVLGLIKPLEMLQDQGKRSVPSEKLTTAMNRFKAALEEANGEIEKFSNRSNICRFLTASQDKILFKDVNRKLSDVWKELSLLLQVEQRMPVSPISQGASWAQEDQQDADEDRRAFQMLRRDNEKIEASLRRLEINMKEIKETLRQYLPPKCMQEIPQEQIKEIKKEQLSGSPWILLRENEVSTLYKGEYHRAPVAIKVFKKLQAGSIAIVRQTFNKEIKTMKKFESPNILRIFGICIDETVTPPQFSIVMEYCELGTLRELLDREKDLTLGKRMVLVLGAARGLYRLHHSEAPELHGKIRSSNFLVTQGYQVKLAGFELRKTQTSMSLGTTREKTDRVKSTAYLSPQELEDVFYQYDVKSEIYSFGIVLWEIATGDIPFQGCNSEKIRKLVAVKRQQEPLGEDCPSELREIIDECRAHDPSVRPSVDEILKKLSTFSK
Put plainly: Inhibition of MLKL phosphorylation at S358 residue in TSZ-induced human HT-29 cells at 10 uM preincubated with compound followed by Z-VAD-FMK, SM164 and TNFalpha stimulation and measured after 6 hrs by Western blot analysis. In kind it is cell-based.

As for `C[C@@H]1C[C@@H]([C@H](O)CC2CC(=O)NC(=O)C2)C(=O)[C@@H](C)C1`, the result in the assay on HT-29 [1], in the assay on HT-29 [2] and in the assay with HT-29 [3] was inactive.

With `CC1(C)CC[C@]2(C(=O)O)CC[C@]3(C)[C@H](C(=O)C=C4[C@@]5(C)C=C(C#N)C(=O)C(C)(C)[C@@H]5CC[C@]43C)[C@@H]2C1` [BARDOXOLONE], the values for the EC50 in the assay with L929 [4] and in the assay on HT-29 [5] were over 10 µM and 2.52 µM, respectively. In addition, the result in the assay with L929 [6] was inactive. The inhibition result in [7] is “Active”. In addition, the inhibition entry in [8], in assay [9] and in assay [10] was “inactive” in each case.
